In EPA's ToxValDB 9.5 (doi:10.2903/j.efsa.2009.174r):

Tests used:
[1] = system: Rattus norvegicus; settings: acute; oral; mortality
[2] = system: Anas platyrhynchos; settings: acute, oral, unspecified
[3] = system: Apis mellifera; settings: acute; duration: 48 hours; dermal; mortality
[4] = system: Cyprinus carpio; settings: acute; duration: 96 hours; mortality
[5] = system: Homo sapiens; settings: clinical; oral; capsule; clinical signs
[6] = system: Pimephales promelas; settings: chronic/long-term; duration: 34 days; reproduction
[7] = system: Landoltia sp.; settings: chronic/long-term; duration: 14 days
[8] = system: Aphidius rhopalosiphi; settings: not reported; mortality
[9] = system: Coturnix japonica; settings: reproduction developmental; duration: 6 weeks
[10] = system: Colinus virginianus; settings: oral; for LD50: acute, mortality
[11] = reproductive
[12] = system: Tagia sp.
[13] = system: Daphnia magna; settings: chronic/long-term; duration: 21 days; reproduction
[14] = system: Zea sp.; settings: chronic/long-term
[15] = system: Canidae; settings: oral, Dog Other

`O=P(O)(O)CCCl` [Ethephon] showed an LD50 [1] of 1560 mg/kg, an NOEL [2] of 450 mg/kg and an LD50 ([2]; mortality) of 1420 mg/kg. For the same compound, the LD50 [3] was > 100 µg/piece, the LC50 [4] was > 100 µg/mL and the NOAEL [5] was 0.5 mg/kg-day. For the same compound, the NOEC [6] was 43 mg/L, the NOEC [7] was < 0.1 mg/L and the LEL [8] was 480 g/ha. For the same compound, the NOEL [9] was 159 mg/kg-day, the LD50 ([10]; duration: 8 days, diet) was > 450 mg/kg and the LD50 [10] was 764 mg/kg. The NOEL ([10]; short-term, duration: 8 days, diet) was > 530 mg/kg-day, the NOAEL [11] was 22.8 mg/kg-day and the LC50 ([12]; acute, duration: 14 days, mortality) was > 60000 g/ha. The NOEC ([12]; chronic/long-term, duration: 8 weeks, reproduction) was ≥ 200 mg/kg, the NOEC [13] was 67 mg/L and the NOEC [14] was 2580 g/ha. It also gave an NOAEL ([15]; chronic, duration: 1 years, body weight) of 27 mg/kg-day and an NOAEL ([15]; short-term, duration: 28 days, clinical chemistry) of 6 mg/kg-day.
